For one assay, the target named is T1, 5-HT3 receptor (Rattus norvegicus, UniProt P35563).
T1 sequence (P35563 24-483): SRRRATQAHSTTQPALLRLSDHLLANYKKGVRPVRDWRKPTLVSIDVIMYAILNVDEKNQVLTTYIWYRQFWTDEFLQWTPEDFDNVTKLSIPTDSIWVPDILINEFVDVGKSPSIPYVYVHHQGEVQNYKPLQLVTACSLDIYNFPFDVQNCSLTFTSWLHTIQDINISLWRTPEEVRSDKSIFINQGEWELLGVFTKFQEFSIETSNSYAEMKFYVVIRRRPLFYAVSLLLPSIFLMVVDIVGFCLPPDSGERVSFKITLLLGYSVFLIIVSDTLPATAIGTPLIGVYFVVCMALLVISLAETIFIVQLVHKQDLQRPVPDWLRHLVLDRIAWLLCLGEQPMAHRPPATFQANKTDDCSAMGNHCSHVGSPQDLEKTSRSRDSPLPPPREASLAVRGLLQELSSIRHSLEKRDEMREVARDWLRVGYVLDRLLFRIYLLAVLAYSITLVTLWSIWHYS
Description: 5-HT3 receptor binding experiment (3H-quipazine binding assay, rat cerebral cortical membrane fraction). Conditions: for inhibition at 0.001 µM / inhibition at 0.01 µM: read-out: Binding inhibitory rate.

In another assay the test system is female beagles. Description: Antiemetic effects against cisplatin-induced vomiting. The class given is in vivo, female beagles (dog). To be noted: for Number of vomits / Latency of the first vomit: test compound 0.1 mg/kg i.v. 75 minutes after cisplatin 3 mg/kg i.v.; for Number of vomits: 4 hours observation; for Vomiting after cisplatin (result in words): two beagles, test compound 0.1 mg/kg i.v., cisplatin 3 mg/kg i.v. The text has this:
Using four 9-13 month-old female beagles having a body weight of 7.5-9.6 Kg (furnished by Toyo Research Animal Inc.), the antiemetic effects of certain compounds of the present invention were investigated.
As test compounds, the compounds obtained in Examples 8 and 9, respectively, were individually weighed and dissolved in 0.01N hydrochloric acid. The resultant solutions were neutralized to about pH 7 with 0.01N NaOH to provide aqueous solutions for administration. Cisplatin ("Briplatin Injection", product of Bristol-Myers Co.) was used as an emetic.
To see the emetic effects of cisplatin to each animal, vomiting after the administration of cisplatin was first observed (control group). Next, seven weeks later, each group consisting of two beagles was intravenously administered with 0.1 mg/kg (0.2 ml/kg) of the compound of Example 8 or 9 upon an elapsed time of 75 minutes after the administration of cisplatin, and the group administered with the compound of Example 8 and the group administered with the compound of Example 9 were both observed for vomit. Cisplatin was intravenously administered at the dosage of 3 mg/kg (in the volume of 6 ml/kg) and the administration rate of 10 ml/min.
The laboratory animals were fasted for about 24 hours prior to administration of cisplatin and, one hour after the administration of cisplatin, were fed. Vomit was determined depending on whether vomitus was discharged out of the mouth. With respect to the number of vomits and their latency, observation was continued for 4 hours after the administration of cisplatin.
Based on the observation, the latency of the first vomit of and the number of vomits of each laboratory animal after the administration of cisplatin are shown in Table 3-A and Table 3-B.

Like-named read-outs stand apart in the source and are kept apart here. Bounds are passed on as bounds.

One may read the IC50 as the concentration needed to halve the response being measured. As for `CN1[C@@H]2CC[C@H]1C[C@@H](OC(=O)c1cnn3ccccc13)C2` [Example 6, endo-8-methyl-8-azabicyclo[3.2.1]-oct-3-yl pyrazolo[1,5-a]pyridine-3-carboxylate], on 5-HT3 receptor, the IC50 was found to be 0.0165 µM, the inhibition at 0.001 µM was determined as 9% and the inhibition at 0.01 µM worked out at 37%. Consider `Cc1cccc2c(C(=O)NC3CN4CCC3CC4)cnn12` (stereo not drawn) [Example 4, 7-methyl-N-(1-azabicyclo[2.2.2]oct-3-yl)-3-pyrazolo[1,5-a]pyridinecarboxamide], for which, on 5-HT3 receptor, the IC50 was determined as 0.0072 µM and the inhibition at 0.01 µM came to 82%. For `O=C(NC1CN2CCC1CC2)c1cnn2ccccc12` (stereo not drawn) [Example 1, N-(1-azabicyclo[2.2.2]oct-3-yl)-3-pyrazolo[1,5-a]pyridinecarboxamide] the same measures were 0.0411 µM and 50%. At 5-HT3 receptor, `Cc1cccn2ncc(C(=O)O)c12` [Control* 3, 4Methylpyrazolo[1,5a]pyridine3-carboxylic acid, reference compound] returned an IC50 greater than 10 µM. With `Cc1nn2c(C)cccc2c1C(=O)O` [Control* 7, 2,7Dimethylpyrazolo[1,5a]pyridine3-carboxylic acid, reference compound], the IC50 on 5-HT3 receptor is greater than 10 µM. Regarding `Cc1cccc2c(C(=O)N[C@H]3C[C@H]4CC[C@@H](C3)N4C)cnn12` [Example 8, endo-8-methyl-8-azabicyclo[3.2.1]-oct-3-yl 7-methyl-pyrazolo[1,5-a]pyridine-3-carboxamide], the Number of vomits in the assay on female beagles (Dog No. 1) and in the assay with female beagles (Dog No. 2) was 0 times in each case. Moreover, the “Vomiting after cisplatin (result in words)” value in the assay with female beagles is “No vomit”. This compound also came in with an IC50 on 5-HT3 receptor of 0.0191 µM.

`Cc1cccc2c(C(=O)O[C@H]3C[C@H]4CC[C@@H](C3)N4C)cnn12` [Example 7, endo-8-methyl-8-azabicyclo[3.2.1]-oct-3-yl 7-methylpyrazolo[1,5-a]pyridine-3-carboxylate]: on 5-HT3 receptor, the IC50 is 0.001 µM, the inhibition at 0.001 µM was determined as 43% and the inhibition at 0.01 µM was determined as 77%. Consider `Cc1cccc2c(C(=O)N[C@H]3C[C@H]4CCC[C@@H](C3)N4C)cnn12` [Example 9, endo-9-methyl-9-azabicyclo[3.3.1]-non-3-yl 7-methyl-pyrazolo[1,5-a]pyridine-3-carboxamide], for which, in the assay on female beagles (Dog No. 3), the “Latency of the first vomit” value was 132 min and the Number of vomits is listed as 12 times. The “Latency of the first vomit” value with female beagles (Dog No. 4) came to 173 min. Besides, the “Vomiting after cisplatin (result in words)” value in the assay with female beagles was “number of vomits therefore decreased in one case”. Further, the IC50 at 5-HT3 receptor (read-out: IC50 value) is 0.0537 µM. Turning to `Cc1cccc2c(C(=O)O)cnn12` [Control* 6, 7Methylpyrazolo[1,5a]pyridine3-carboxylic acid, reference compound], on 5-HT3 receptor, the IC50 is greater than 10 µM. `Cc1ccn2ncc(C(=O)O[C@H]3C[C@H]4CC[C@@H](C3)N4C)c2c1` [Example 17, endo-8-methyl-8-azabicyclo[3.2.1]-oct-3-yl 5-methylpyrazolo[1,5-a]pyridine-3-carboxylate] displayed an IC50 at 5-HT3 receptor of 0.0258 µM.

For the compound `Cc1cccc2c(C(=O)N[C@H]3CN4CCC3CC4)cnn12` [Example 11, (R)-(+)-N-(1-azabicyclo[2.2.2]oct-3-yl)-7-methylpyrazolo[1,5-a]pyridine-3-carboxamide], the IC50 at 5-HT3 receptor came out at 0.0449 µM. As to `Cc1ccc2c(C(=O)O)cnn2c1` [Control* 5, 6Methylpyrazolo[1,5a]pyridine3-carboxylic acid, reference compound], the IC50 on 5-HT3 receptor is greater than 10 µM.

As for `Cc1nn2c(C)cccc2c1C(=O)NC1CN2CCC1CC2` (stereo not drawn) [Example 19], the IC50 on 5-HT3 receptor worked out at 0.0052 µM.

With `O=C(O)c1cnn2ccccc12` [Control* 1, Pyrazolo[1,5a]pyridine3-carboxylic acid, reference compound], the concentration for half-maximal inhibition (IC50) at 5-HT3 receptor was greater than 10 µM. In the case of `Cc1cccn2ncc(C(=O)O[C@H]3C[C@H]4CC[C@@H](C3)N4C)c12` [Example 16, endo-8-methyl-8-azabicyclo[3.2.1]-oct-3-yl 4-methyl-pyrazolo[1,5-a]pyridine-3-carboxylate], the IC50 on 5-HT3 receptor is 0.0035 µM. As to `Cc1nn2ccccc2c1C(=O)NC1CN2CCC1CC2` (stereo not drawn) [Example 5, 2-methyl-N-(1-azabicyclo[2.2.2]oct-3-yl)-3-pyrazolo[1,5-a]pyridinecarboxamide], on 5-HT3 receptor, the IC50 worked out at 0.0189 µM and the inhibition at 0.01 µM was 50%. On 5-HT3 receptor, `Cc1nn2ccccc2c1C(=O)O[C@H]1C[C@H]2CC[C@@H](C1)N2C` [Example 15, endo-8-methyl-8-azabicyclo[3.2.1]-oct-3-yl 2-methyl-pyrazolo[1,5-a]pyridine-3-carboxylate] gave an IC50 of 0.0027 µM. `Cc1ccn2ncc(C(=O)NC3CN4CCC3CC4)c2c1` (stereo not drawn) [Example 2, 5-methyl-N-(1-azabicyclo[2.2.2]oct-3-yl)-3-pyrazolo[1,5-a]pyridinecarboxamide]: on 5-HT3 receptor, the IC50 came out at 0.0432 µM and the inhibition at 0.01 µM worked out at 31%. As for `Cc1cccc2c(C(=O)N[C@@H]3CN4CCC3CC4)cnn12` [Example 10, (S)-(-)-N-(1-azabicyclo[2.2.2]oct-3-yl)-7-methylpyrazolo[1,5-a]pyridine-3-carboxamide], the IC50 at 5-HT3 receptor was 0.00028 µM.

On 5-HT3 receptor, `Cc1nn2ccccc2c1C(=O)O` [Control* 2, 2Methylpyrazolo[1,5a]pyridine3-carboxylic acid, reference compound] returned an IC50 greater than 10 µM. Still for that read-out and setting: in the case of `Cc1ccn2ncc(C(=O)O)c2c1` [Control* 4, 5Methylpyrazolo[1,5a]pyridine3-carboxylic acid, reference compound] it was greater than 10 µM.

The record behind these values is patent US5200415A, “Pyrazolo[1,5-a]pyridine-3-carboxylic acid derivatives and their pharmaceutical use” (Asahi Kasei Kogyo Kabushiki Kaisha, priority 1990, dated 1993).
